Measurements taken from ChEMBL document CHEMBL3885861, “Open TG-GATES”.

Species on record: Rattus norvegicus
Experiment: Open TG-GATES - Regimen: Single
Assay type: toxicity, organism-based, Sprague-Dawley
Design: regimen Single, gender Male, age 6 weeks
Settings: in vivo, po, 0 mg/kg, route gavage, dose level Control; for APTT / Bas / Eos / Fbg / Hb / Ht / Lym / MCH / MCHC / MCV / Mono / Neu / PT / Plat / RBC / Ret / WBC: tissue Blood; for KIDNEY_L / KIDNEY_R / KIDNEY_TOTAL: tissue Kidney; for LIVER: tissue Liver; for A/G / ALP / ALT / AST / BUN / CRE / Ca / Cl / DBIL / GLC / IP / K / LDH / Na / PL / RALB / TBIL / TC / TG / TP / gamma-GTP: tissue Plasma

`CN(C)CCC(c1ccc(Cl)cc1)c1ccccn1` (configuration not stated) [CHLORPHENIRAMINE] gave a TERMINAL_BW (3 h) of 198.4 g, an APTT (3 h) of 18.8 s and a Bas (3 h) of 0.2%. It also gave an Eos (3 h) of 0.8%, a Fbg (3 h) of 288.8 mg/dL and a Hb (3 h) of 12.6 g/dL. The Ht (3 h) was 39.4%, the Lym (3 h) was 77.4% and the MCH (3 h) was 20.8 pg. For the same compound, the MCHC (3 h) was 32.1%, the MCV (3 h) was 64.9 fL and the Mono (3 h) was 2.8%. The Neu (3 h) was 18.2%, the PT (3 h) was 14.7 s and the Plat (3 h) was 109.9 x10_4/uL. It also gave an RBC (3 h) of 606.2 x10_4/ul, a Ret (3 h) of 9.4% and a WBC (3 h) of 120.9 x10_2/uL. It also gave a KIDNEY_L (3 h) of 0.9 g, a KIDNEY_R (3 h) of 0.9 g and a KIDNEY_TOTAL (3 h) of 1.7 g. The LIVER (3 h) was 9.2 g, the A/G (3 h) was 0.9 and the ALP (3 h) was 1344.2 IU/L. It also gave an ALT (3 h) of 46 IU/L, an AST (3 h) of 73.6 IU/L and a BUN (3 h) of 9.2 mg/dL. It also gave a CRE (3 h) of 0.2 mg/dL, a Ca (3 h) of 10.5 mg/dL and a Cl (3 h) of 107.2 meq/L. It also gave a DBIL (3 h) of 0.008 mg/dL, a GLC (3 h) of 179 mg/dL and an IP (3 h) of 9.7 mg/dL. For the same compound, the K (3 h) was 4.3 meq/L, the LDH (3 h) was 215.8 IU/L and the Na (3 h) was 142.8 meq/L. For the same compound, the PL (3 h) was 137.2 mg/dL, the RALB (3 h) was 2.5 g/dL and the TBIL (3 h) was 0.054 mg/dL. The TC (3 h) was 79.8 mg/dL, the TG (3 h) was 46.6 mg/dL and the TP (3 h) was 5.3 g/dL. The gamma-GTP (3 h) was 1.4 IU/L, the TERMINAL_BW (6 h) was 196.5 g and the APTT (6 h) was 17.5 s. It also gave a Bas (6 h) of 0%, an Eos (6 h) of 0.6% and a Fbg (6 h) of 303.6 mg/dL. It also gave a Hb (6 h) of 12.8 g/dL, a Ht (6 h) of 40.3% and a Lym (6 h) of 76.8%. The MCH (6 h) was 20.7 pg, the MCHC (6 h) was 31.8% and the MCV (6 h) was 65.1 fL. For the same compound, the Mono (6 h) was 3.2%, the Neu (6 h) was 18.8% and the PT (6 h) was 14.8 s. It also gave a Plat (6 h) of 117.5 x10_4/uL, an RBC (6 h) of 618.2 x10_4/ul and a Ret (6 h) of 9.5%. It also gave a WBC (6 h) of 82.5 x10_2/uL, a KIDNEY_L (6 h) of 0.9 g and a KIDNEY_R (6 h) of 0.9 g. The KIDNEY_TOTAL (6 h) was 1.7 g, the LIVER (6 h) was 8.7 g and the A/G (6 h) was 0.9. The ALP (6 h) was 1456.6 IU/L, the ALT (6 h) was 44.8 IU/L and the AST (6 h) was 76.2 IU/L. For the same compound, the BUN (6 h) was 10.2 mg/dL, the CRE (6 h) was 0.2 mg/dL and the Ca (6 h) was 10.8 mg/dL. The Cl (6 h) was 106.6 meq/L, the DBIL (6 h) was 0.008 mg/dL and the GLC (6 h) was 190.6 mg/dL. It also gave an IP (6 h) of 10.7 mg/dL, a K (6 h) of 4.2 meq/L and an LDH (6 h) of 140.2 IU/L. For the same compound, the Na (6 h) was 143 meq/L, the PL (6 h) was 135.2 mg/dL and the RALB (6 h) was 2.5 g/dL. For the same compound, the TBIL (6 h) was 0.05 mg/dL, the TC (6 h) was 81 mg/dL and the TG (6 h) was 49.2 mg/dL. The TP (6 h) was 5.4 g/dL, the gamma-GTP (6 h) was 1.2 IU/L and the TERMINAL_BW (9 h) was 193.9 g. For the same compound, the APTT (9 h) was 19.1 s, the Bas (9 h) was 0% and the Eos (9 h) was 0.8%. It also gave a Fbg (9 h) of 294.4 mg/dL, a Hb (9 h) of 12.7 g/dL and a Ht (9 h) of 39.4%. The Lym (9 h) was 75.6%, the MCH (9 h) was 21.6 pg and the MCHC (9 h) was 32.2%. For the same compound, the MCV (9 h) was 67.1 fL, the Mono (9 h) was 2.8% and the Neu (9 h) was 19.8%. It also gave a PT (9 h) of 15 s, a Plat (9 h) of 107.8 x10_4/uL and an RBC (9 h) of 587.6 x10_4/ul. For the same compound, the Ret (9 h) was 9.5%, the WBC (9 h) was 66.4 x10_2/uL and the KIDNEY_L (9 h) was 0.9 g. It also gave a KIDNEY_R (9 h) of 0.9 g, a KIDNEY_TOTAL (9 h) of 1.7 g and an LIVER (9 h) of 7.7 g. It also gave an A/G (9 h) of 0.9, an ALP (9 h) of 1415.8 IU/L and an ALT (9 h) of 38.6 IU/L. It also gave an AST (9 h) of 73.8 IU/L, a BUN (9 h) of 8.2 mg/dL and a CRE (9 h) of 0.1 mg/dL. For the same compound, the Ca (9 h) was 10.2 mg/dL, the Cl (9 h) was 106.6 meq/L and the DBIL (9 h) was 0.008 mg/dL. It also gave a GLC (9 h) of 161.6 mg/dL, an IP (9 h) of 10.7 mg/dL and a K (9 h) of 4 meq/L. It also gave an LDH (9 h) of 116.2 IU/L, a Na (9 h) of 143.8 meq/L and a PL (9 h) of 131.6 mg/dL. It also gave an RALB (9 h) of 2.5 g/dL, a TBIL (9 h) of 0.054 mg/dL and a TC (9 h) of 76.2 mg/dL. For the same compound, the TG (9 h) was 39.4 mg/dL, the TP (9 h) was 5.4 g/dL and the gamma-GTP (9 h) was 1.2 IU/L. For the same compound, the TERMINAL_BW (24 h) was 212.2 g, the APTT (24 h) was 19.7 s and the Bas (24 h) was 0%. The Eos (24 h) was 1%, the Fbg (24 h) was 292.6 mg/dL and the Hb (24 h) was 13.3 g/dL. For the same compound, the Ht (24 h) was 41.2%, the Lym (24 h) was 80.6% and the MCH (24 h) was 21.2 pg. It also gave an MCHC (24 h) of 32.2%, an MCV (24 h) of 66 fL and a Mono (24 h) of 3.6%. The Neu (24 h) was 14.2%, the PT (24 h) was 14.7 s and the Plat (24 h) was 116.5 x10_4/uL. For the same compound, the RBC (24 h) was 624.8 x10_4/ul, the Ret (24 h) was 8.4% and the WBC (24 h) was 75.5 x10_2/uL. The KIDNEY_L (24 h) was 0.9 g, the KIDNEY_R (24 h) was 0.9 g and the KIDNEY_TOTAL (24 h) was 1.8 g. For the same compound, the LIVER (24 h) was 10 g, the A/G (24 h) was 0.8 and the ALP (24 h) was 1528.4 IU/L. The ALT (24 h) was 46 IU/L, the AST (24 h) was 70.2 IU/L and the BUN (24 h) was 14.6 mg/dL. For the same compound, the CRE (24 h) was 0.2 mg/dL, the Ca (24 h) was 11 mg/dL and the Cl (24 h) was 106.4 meq/L. The DBIL (24 h) was 0.012 mg/dL, the GLC (24 h) was 190.6 mg/dL and the IP (24 h) was 8.8 mg/dL. The K (24 h) was 4.3 meq/L, the LDH (24 h) was 94.4 IU/L and the Na (24 h) was 143 meq/L. It also gave a PL (24 h) of 156.8 mg/dL, an RALB (24 h) of 2.7 g/dL and a TBIL (24 h) of 0.04 mg/dL. The TC (24 h) was 85 mg/dL, the TG (24 h) was 86 mg/dL and the TP (24 h) was 5.8 g/dL. It also gave a gamma-GTP (24 h) of 1.4 IU/L.
